# Measurements as given in ChEMBL document CHEMBL5143654, “Synthesis and biological evaluation of marine natural product, Cryptoechinuline D derivatives as novel antiangiogenic agents” (Bioorg Med Chem Lett, 2022).
# Active and inactive are the calls of the source. The rule behind the calls is not given here.
# Key:
# HUVEC [1] = assay: Cytotoxicity against HUVEC cells assessed as cell viability at 50 uM measured after 24 hrs by MTT assay; format: functional; conditions: Homo sapiens, read-out: Activity
# HUVEC [2] = assay: Anti-angiogenesis activity against HUVEC cells assessed as inhibition of cell migration at 5 to 10 uM measured after 24 hrs by Matrigel invasion assay; format: functional, cell-based; conditions: Homo sapiens, dose 5-10 µM
# HUVEC [3] = assay: Cytotoxicity against HUVEC cells assessed as inhibition of cell viability measured after 24 hrs by MTT assay; format: functional, cell-based; conditions: Homo sapiens
# HUVEC [4] = assay: Anti-angiogenesis activity against HUVEC cells assessed as decrease in Tie2 phosphorylation at Tyr1102/1100 level at 5 to 10 uM measured after 24 hrs by Western blot analysis; format: functional, cell-based; conditions: Homo sapiens, dose 5-10 µM
# HUVEC [5] = assay: Anti-angiogenesis activity against HUVEC cells assessed as inhibition of vertical migration at 5 to 10 uM measured after 24 hrs by Transwell assay; format: functional, cell-based; conditions: Homo sapiens, dose 5-10 µM
# HUVEC [6] = assay: Anti-angiogenesis activity against HUVEC cells assessed as decrease in Ang2 level at 5 to 10 uM measured after 24 hrs by Western blot analysis; format: functional, cell-based; conditions: Homo sapiens, dose 5-10 µM
# HUVEC [7] = assay: Antiproliferative activity against HUVEC assessed as decrease in number Edu-positive cells at 5 to 10 uM after 24 hrs by fluorescence microscopic analysis; format: functional, cell-based; conditions: Homo sapiens, dose 5-10 µM
# HUVEC [8] = assay: Anti-angiogenesis activity against HUVEC cells assessed as inhibition of horizontal migration at 5 to 10 uM measured after 8 hrs by wound healing assay; format: functional, cell-based; conditions: Homo sapiens, dose 5-10 µM
Structure (SMILES),viability at 50 µM (HUVEC [1]),further results
C=CC(C)(C)c1[nH]c2ccccc2c1/C=C1\NC(=O)[C@@]2(C[C@@H](C)C=C[C@H]2/C=C/c2c(OC(C)=O)cc(CC=C(C)C)c(OC(C)=O)c2/C=N\O)NC1=O (racemic),94.4%,–
C=CC(C)(C)c1[nH]c2ccccc2c1/C=C1\NC(=O)[C@@]2(C[C@@H](C)C=C[C@H]2/C=C/c2c(OC(C)=O)cc(CC=C(C)C)c(O)c2C=O)NC1=O (racemic),33.7%,–
C=CC(C)(C)c1[nH]c2ccccc2c1/C=C1\NC(=O)[C@@]2(C[C@@H](C)C=C[C@H]2/C=C/c2c(OC(C)=O)cc(CC=C(C)C)c(O)c2C#N)NC1=O (racemic),71.8%,–
C=CC(C)(C)c1[nH]c2ccccc2c1/C=C1\NC(=O)[C@@]2(C[C@@H](C)C=C[C@H]2/C=C/c2c(OC(C)=O)cc(CC=C(C)C)c(OC(C)=O)c2COC(C)=O)NC1=O (racemic),83.2%,–
C=CC(C)(C)c1[nH]c2ccccc2c1/C=C1\NC(=O)[C@@]2(C[C@@H](C)C=C[C@H]2/C=C/c2c(O)cc(CC=C(C)C)c(OC)c2C=O)NC1=O (racemic),78.7%,–
C=CC(C)(C)c1[nH]c2ccccc2c1/C=C1\NC(=O)[C@@]2(C[C@@H](C)C=C[C@H]2/C=C/c2c(OC(C)=O)cc(CC=C(C)C)c(O)c2/C=N\O)NC1=O (racemic),93%,–
C=CC(C)(C)c1[nH]c2ccccc2c1/C=C1\NC(=O)[C@@]2(C[C@@H](C)C=C[C@H]2/C=C/c2c(OC(C)=O)cc(CC=C(C)C)c(OC(C)=O)c2C=O)NC1=O (racemic),5.33%,inhibition (HUVEC [2]): Active; IC50 (HUVEC [3]): 12.6 µM; inhibition (HUVEC [3]; DDE = dose-dependent effect): Dde; inhibition (HUVEC [4]): Active; inhibition (HUVEC [5]): Active; inhibition (HUVEC [6]): Active; inhibition (HUVEC [7]): Active; inhibition (HUVEC [8]): Active
C=CC(C)(C)c1[nH]c2ccccc2c1/C=C1\NC(=O)[C@@]2(C[C@@H](C)C=C[C@H]2/C=C/c2c(OC(C)=O)cc(CC=C(C)C)c(O)c2CN(CC)CC)NC1=O (racemic),94.3%,–
C=CC(C)(C)c1[nH]c2ccccc2c1/C=C1\NC(=O)[C@@]2(C[C@@H](C)C=C[C@H]2/C=C/c2c(OC(C)=O)cc(CC=C(C)C)c(O)c2CO)NC1=O (racemic),40.4%,–
C=CC(C)(C)c1[nH]c2ccccc2c1/C=C1\NC(=O)[C@@]2(C[C@@H](C)C=C[C@H]2/C=C/c2c(OC)cc(CC=C(C)C)c(OC)c2C=O)NC1=O (racemic),87.5%,–
C=CC(C)(C)c1[nH]c2ccccc2c1/C=C1\NC(=O)[C@@]2(C[C@@H](C)C=C[C@H]2/C=C/c2c(O)cc(CC=C(C)C)c(O)c2C=O)NC1=O (racemic),82.1%,–
C=CC(C)(C)c1[nH]c2ccccc2c1/C=C1\NC(=O)[C@@]2(C[C@@H](C)C=C[C@H]2/C=C/c2c(OC)cc(CC=C(C)C)c(O)c2CN2CCCC2)NC1=O (racemic),81.6%,–
C=CC(C)(C)c1[nH]c2ccccc2c1/C=C1\NC(=O)[C@@]2(C[C@@H](C)C=C[C@H]2/C=C/c2c(OC)cc(CC=C(C)C)c(O)c2C=O)NC1=O (racemic),31.1%,–
